Consider three compounds from patent US7781418B2, “Composition for treating bone disorders” (Isis Innovation Ltd., priority 2006, dated 2010).

The term IC50 denotes the point on the concentration scale where inhibition reaches its midpoint.

In assay [1] the target is T1, farnesyl pyrophosphate synthase (FPPS) (Homo sapiens, UniProt P14324).
T1 sequence (P14324 1-419): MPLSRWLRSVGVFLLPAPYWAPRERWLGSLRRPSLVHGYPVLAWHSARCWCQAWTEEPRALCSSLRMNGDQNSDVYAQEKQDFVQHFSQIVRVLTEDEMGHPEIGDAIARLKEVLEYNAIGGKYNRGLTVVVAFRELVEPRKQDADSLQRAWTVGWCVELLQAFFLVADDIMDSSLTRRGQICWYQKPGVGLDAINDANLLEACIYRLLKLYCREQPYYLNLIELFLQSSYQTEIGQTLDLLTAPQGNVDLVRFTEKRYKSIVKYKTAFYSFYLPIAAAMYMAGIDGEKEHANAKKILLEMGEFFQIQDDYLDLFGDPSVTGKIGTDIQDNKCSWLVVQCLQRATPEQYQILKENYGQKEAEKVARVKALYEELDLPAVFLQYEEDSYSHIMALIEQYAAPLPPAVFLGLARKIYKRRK
As to the kind of experiment: farnesyl pyrophosphate synthase (FPPS) inhibition assay. Format: biochemical. The protocol:
The activity of the racemic mixture, is approximately 42 nM.

For assay [2], the system named is bone resorption and mineralization. As to the kind of experiment: Schenk Model: in vivo bone resorption inhibition and mineralization inhibition, lowest effective dose. Conditions: for Lowest Effective Dose, Bone Mineral Density (BMD) / Lowest Effective Dose, Bone Mineral Content (BMC): head-to-head comparison of all three compounds; for Lowest Effective Dose, Bone Mineral Content (BMC): highest dose tested 0.1.

Counter-ions that a name gives are not always drawn.

As for `O=P(O)(O)C1(P(=O)(O)O)CC2CCCNC2C1` (racemic) [Racemic Mixture], the IC50 in assay [1] was roughly 42 nM. Further, in assay [2], the “Lowest Effective Dose, Bone Mineral Density (BMD)” value (from here on “Lowest Effective Dose … (BMD)”) is 0.03 mg P/kg and the “Lowest Effective Dose, Bone Mineral Content (BMC)” value (from here on “Lowest Effective Dose … (BMC)”) worked out at 0.03 mg P/kg.
As to `O=P(O)(O)C1(P(=O)(O)O)C[C@@H]2CCCN[C@@H]2C1` [1R,6S Isomer, (1R,6S)-2-Azabicyclo[4.3.0]nonane-8,8-diphosphonic acid hydrochloride salt], in assay [1], the IC50 amounted to 15 nM. Further, the “activity in the Schenk assay relative to enantiomer (1S,6R) and racemic mixture” value in assay [2] (compared with (1S,6R) enantiomer and corresponding racemic mixture) is recorded as “more active”. Besides, in assay [2], the “Lowest Effective Dose … (BMD)” value was determined as 0.01 mg P/kg and the “Lowest Effective Dose … (BMC)” value is on record as 0.01 mg P/kg.
In the case of `O=P(O)(O)C1(P(=O)(O)O)C[C@H]2CCCN[C@H]2C1` [1S,6R Isomer], the half-inhibitory concentration (IC50) in assay [1] turned out to be 359 nM. In assay [2], the “Lowest Effective Dose … (BMD)” value stood at 0.1 mg P/kg and the “Lowest Effective Dose … (BMC)” value is given as >0.1^2^ mg P/kg.
